From patent publication US20210330611A1, “THERAPY FOR NEUROLOGICAL DISEASES/DISORDERS” (priority 2020, published 2021)
Where a name gives a salt, the structure may show the parent alone.

Legend:
[1] = test system: primary rat microglia; assay: Cell toxicity (dead cells, size <150 μm2) in LPS assay; conditions: primary microglia HTS, LPS stimulation; decreased size (<150 μm^2) as marker of toxicity
[2] = test system: LPS-induced microglia activation; assay: Image-based assay of LPS-induced microglia activation (HTS and dose response); type: cell-based, rat; conditions: primary microglia HTS, LPS stimulation, increased cell size (>800 μm^2) as marker of activation; for inhibition at 10 µM: Rattus norvegicus, Microglia, 48 h, read-out: LPS % inhibition
[3] = test system: fibrin-induced microglia activation; assay: Image-based assay of fibrin-induced microglia activation (HTS and dose response); type: cell-based, rat; conditions: primary microglia HTS, fibrin stimulation, increased cell size (>800 μm^2) as marker of activation; for inhibition at 10 µM: Rattus norvegicus, Microglia, read-out: Fibrin % inhibition
[4] = test system: primary rat microglia; assay: Cell toxicity (dead cells, size <150 μm2) in coated fibrin (cFib) assay; conditions: primary microglia HTS, fibrin stimulation; decreased size (<150 μm^2) as marker of toxicity;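 also: share of dead cells sized under 150 µm2 at 10 µM in fibrin-stimulated microglia HTS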
[5] = test system: fibrin- and LPS-induced microglia activation; assay: cells; type: cell-based, rat; conditions: quadrant by fibrin and LPS inhibition in HTS of 1907 compounds

| Compound | LPS % cell toxicity [1] | inhibition at 10 µM [2] | inhibition at 10 µM [3] | Fibrin % cell toxicity [4] | Quadrant (FIG. 5b) [5] | LPS % inhibition [2] | Fibrin % inhibition [3] |
| --- | --- | --- | --- | --- | --- | --- | --- |
| COc1ccccc1OCC(O)COC(N)=O (stereo not drawn) [Methocarbamol] | 0% | 10% | 4% | 0% | Q4 | – | – |
| COc1ccc(OC)c(C(O)C(C)N)c1 (stereo not drawn) [Methoxamine] | 0% | 1% | 3% | 1% | Q4 | – | – |
| CN1C(=O)CC(C)(c2ccccc2)C1=O (stereo not drawn) [Methsuximide] | 0% | 19% | -39% | 0% | Q4 | – | – |
| CN1C(CCl)Nc2cc(Cl)c(S(N)(=O)=O)cc2S1(=O)=O (stereo not drawn) [Methyclothiazide] | 0% | 17% | 25% | 1% | Q4 | – | – |
| C[N+]1(C)[C@@H]2CC[C@H]1C[C@@H](OC(=O)C(CO)c1ccccc1)C2 (stereo partly drawn) [Methylatropine Nitrate] | 0% | 14% | -2% | 1% | Q4 | – | – |
| C[C@]12CCC(=O)C=C1CC[C@@H]1[C@@H]2CC[C@@]2(C)[C@H]1CC[C@]2(C)O [Methyltestosterone] | 0% | -2% | -40% | 1% | Q4 | – | – |
| Cc1cc(=O)[nH]c(=S)[nH]1 [Methylthiouracil] | 0% | 16% | 31% | 0% | Q4 | – | – |
| COc1cccc(OC)c1C(=O)N[C@@H]1C(=O)N2[C@@H]1SC(C)(C)[C@@H]2C(=O)O [Meticillin] | 0% | 18% | -19% | 0% | Q4 | – | – |
| Cc1cc2c(cc1S(N)(=O)=O)S(=O)(=O)CCC2 [Meticrane] | 0% | 9% | -33% | 0% | Q4 | – | – |
| CCN(CC)CCNC(=O)c1cc(Cl)c(N)cc1OC [Metoclopramide] | 0% | 12% | -2% | 1% | Q4 | – | – |
| Cc1ccccc1N1C(=O)c2cc(S(N)(=O)=O)c(Cl)cc2NC1C (stereo not drawn) [Metolazone] | 0% | 19% | -2% | 1% | Q4 | – | – |
| COCCc1ccc(OCC(O)CNC(C)C)cc1 (stereo not drawn) [Metoprolol] | 0% | 22% | 4% | 1% | Q4 | – | – |
| COP(=O)(OC)C(O)C(Cl)(Cl)Cl (stereo not drawn) [Metrifonate] | 0% | 8% | -34% | 0% | Q4 | – | – |
| COc1ccc(C(=O)c2ccc(C)cc2)c(O)c1 [Mexeneone] | 0% | – | – | 1% | Q4 | 9% | −8% |
| OCCN1C[C@H](O)[C@@H](O)[C@H](O)[C@H]1CO [Miglitol] | 0% | 13% | -9% | 0% | Q4 | – | – |
| CCCCN1C[C@H](O)[C@@H](O)[C@H](O)[C@H]1CO [Miglustat] | 0% | 0% | -6% | 1% | Q4 | – | – |
| CCCCCCCCCCCCCCCCOP(=O)([O-])OCC[N+](C)(C)C [Miltefosine] | 0% | 11% | -31% | 1% | Q4 | – | – |
| Cc1cc(-c2ccccc2)nnc1NCCN1CCOCC1 [Minaprine] | 0% | 10% | -22% | 0% | Q4 | – | – |
| O=C(NCCN1CCOCC1)c1ccc(Cl)cc1 [Moclobemide] | 0% | 14% | -6% | 1% | Q4 | – | – |
| NC(=O)C[S+]([O-])C(c1ccccc1)c1ccccc1 (stereo not drawn) [Modafinil] | 0% | 25% | -5% | 1% | Q4 | – | – |
| CCOC(=O)[C@H](CCc1ccccc1)N[C@@H](C)C(=O)N1Cc2cc(OC)c(OC)cc2C[C@H]1C(=O)O [Moexipril] | 1% | 9% | -29% | 1% | Q4 | – | – |
| CCOC(=O)CC(=O)N1CCSC1COc1ccccc1OC (stereo not drawn) [Moguisteine] | 0% | 15% | -2% | 1% | Q4 | – | – |
| Oc1ccc(OCc2ccccc2)cc1 [Monobenzone] | 0% | 16% | 7% | 1% | Q4 | – | – |
| Cc1ccsc1/C=C/C1=NCCCN1C [Morantel Citrate] | 0% | 11% | -11% | 1% | Q4 | – | – |
